Assay results: patent publication US20170008928A1, “NOVEL PEPTIDES AND PEPTIDE DERIVATIVES AND USES THEREOF” (Novo Nordisk A/S, priority 2015, published 2017)
Where two headings read alike, the source gives them in different places. Starred links: 1 amine or outer side, 2 acyl side, 3 side chain; linkers in the order of their positions; H or OH if unused. Non-standard residues stand in square brackets, D forms with d. Residues, ends and D or L forms follow the SMILES beside them. No end group written: not given here. *: point of attachment. Phe(4-CH2SO3H) = N[C@@H](Cc1ccc(CS(=O)(=O)O)cc1)C(=O)O; sY = N[C@@H](Cc1ccc(OS(=O)(=O)O)cc1)C(=O)O; C18 diacid = O=C(O)CCCCCCCCCCCCCCCCC(=O)*; d(βAsp) = O=C(O)[C@@H](CC(=O)[*:2])N[*:1]; γGlu = O=C(O)[C@H](CCC(=O)[*:2])N[*:1]; 1Nal = N[C@@H](Cc1cccc2ccccc12)C(=O)O; NMeF = CN[C@@H](Cc1ccccc1)C(=O)O; dNMeD = CN[C@H](CC(=O)O)C(=O)O; Nle = CCCC[C@H](N)C(=O)O; AEEA = NCCOCCOCC(=O)O

T1: human cholecystokinin-1 receptor (human, UniProt P32238 1-428)
T1 sequence (looked up): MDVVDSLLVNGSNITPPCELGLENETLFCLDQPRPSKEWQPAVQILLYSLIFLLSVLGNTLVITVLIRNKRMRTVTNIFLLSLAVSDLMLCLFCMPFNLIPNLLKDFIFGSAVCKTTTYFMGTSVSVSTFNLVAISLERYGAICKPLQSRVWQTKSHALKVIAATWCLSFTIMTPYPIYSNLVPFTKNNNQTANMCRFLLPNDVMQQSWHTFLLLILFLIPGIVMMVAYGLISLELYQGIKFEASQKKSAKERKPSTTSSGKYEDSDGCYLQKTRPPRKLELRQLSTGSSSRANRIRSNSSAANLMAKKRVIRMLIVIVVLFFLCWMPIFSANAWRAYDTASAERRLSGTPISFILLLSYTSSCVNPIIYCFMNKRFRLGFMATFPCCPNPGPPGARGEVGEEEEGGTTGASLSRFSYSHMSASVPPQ

T2: human cholecystokinin-2 receptor (human, UniProt P32239 1-447)
T2 sequence (looked up): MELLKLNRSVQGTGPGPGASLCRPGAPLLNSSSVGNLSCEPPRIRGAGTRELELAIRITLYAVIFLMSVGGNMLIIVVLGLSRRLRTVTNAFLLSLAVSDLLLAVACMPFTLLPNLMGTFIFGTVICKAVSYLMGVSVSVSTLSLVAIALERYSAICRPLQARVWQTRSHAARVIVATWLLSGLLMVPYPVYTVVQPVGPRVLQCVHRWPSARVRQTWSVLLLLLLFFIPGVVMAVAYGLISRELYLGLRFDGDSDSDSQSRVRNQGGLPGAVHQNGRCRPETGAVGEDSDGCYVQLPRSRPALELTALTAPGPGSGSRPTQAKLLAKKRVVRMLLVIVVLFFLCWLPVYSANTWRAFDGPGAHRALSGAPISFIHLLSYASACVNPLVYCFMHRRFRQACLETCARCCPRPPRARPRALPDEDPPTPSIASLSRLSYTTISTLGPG

T3: human cholecystokinin-1 receptor (CCK-1R) (Homo sapiens, UniProt P32238)
T3 construct: host or cells: 1321-N1 cells
T3 sequence (P32238 1-428): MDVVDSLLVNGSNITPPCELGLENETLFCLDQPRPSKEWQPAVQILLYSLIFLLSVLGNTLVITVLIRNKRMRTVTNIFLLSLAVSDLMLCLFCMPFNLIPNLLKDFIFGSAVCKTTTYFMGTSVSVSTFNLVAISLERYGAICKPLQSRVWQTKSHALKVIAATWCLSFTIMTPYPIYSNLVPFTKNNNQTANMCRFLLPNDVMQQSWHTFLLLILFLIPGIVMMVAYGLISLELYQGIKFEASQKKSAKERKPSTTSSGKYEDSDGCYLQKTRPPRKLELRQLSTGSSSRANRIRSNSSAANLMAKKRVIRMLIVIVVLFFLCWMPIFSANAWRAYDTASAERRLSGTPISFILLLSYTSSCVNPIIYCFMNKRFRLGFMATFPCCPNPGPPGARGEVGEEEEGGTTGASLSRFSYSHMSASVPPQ

T4: human cholecystokinin-2 receptor (CCK-2R) (Homo sapiens, UniProt P32239)
T4 construct: host or cells: 1321-N1 cells (plasma membranes prepared by Evotec AG Hamburg)
T4 sequence (P32239 1-447): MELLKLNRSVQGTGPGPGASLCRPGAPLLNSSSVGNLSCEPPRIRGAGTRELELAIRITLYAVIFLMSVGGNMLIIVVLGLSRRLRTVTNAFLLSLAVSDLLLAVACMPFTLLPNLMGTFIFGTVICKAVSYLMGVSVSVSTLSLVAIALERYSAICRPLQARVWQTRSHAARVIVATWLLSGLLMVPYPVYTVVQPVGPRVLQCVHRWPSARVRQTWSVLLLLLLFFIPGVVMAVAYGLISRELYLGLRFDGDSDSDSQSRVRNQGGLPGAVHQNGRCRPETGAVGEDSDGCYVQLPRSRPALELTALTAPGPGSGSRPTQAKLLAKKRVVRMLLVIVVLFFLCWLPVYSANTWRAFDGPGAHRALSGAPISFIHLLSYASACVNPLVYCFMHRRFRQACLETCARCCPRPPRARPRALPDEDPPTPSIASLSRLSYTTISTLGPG


Key:
[1] = target: T1, human cholecystokinin-1 receptor; experiment: cell-based or functional assay
[2] = target: T2, human cholecystokinin-2 receptor; experiment: cell-based or functional assay
[3] = target: T3, human cholecystokinin-1 receptor (CCK-1R); experiment: In vitro potency on CCK-1R, whole cell functional assay (IP1 accumulation, IP-One HTRF); assay type: cell-based; conditions: for CCK-1R selectivity (EC50 (CCK-2R)/EC50 (CCK-1R)): ratio of functional EC50 values, >1 = preference for CCK-1R
[4] = target: T4, human cholecystokinin-2 receptor (CCK-2R); experiment: In vitro receptor binding to CCK-2R, SPA displacement of [125I]-CCK-8s from plasma membranes
[5] = target: T4, human cholecystokinin-2 receptor (CCK-2R); experiment: In vitro potency on CCK-2R, whole cell functional assay (IP1 accumulation, IP-One HTRF); assay type: cell-based
[6] = target: T3, human cholecystokinin-1 receptor (CCK-1R); experiment: In vitro receptor binding to CCK-1R, SPA displacement of [125I]-CCK-8s from plasma membranes; conditions: for CCK-1R binding selectivity (IC50 (CCK-2R)/IC50 (CCK-1R)): ratio of binding IC50 values, >1 = preference for CCK-1R
[7] = 1321-N1 cells stably expressing CCK-1R, IP1 accumulation, average of min. three replicates, read-out: EC50 (CCK-1R)
[8] = displacement of [125I]-CCK-8s, plasma membranes of 1321-N1 cells expressing CCK-2R, highest dose tested 1×10^7 pM, read-out: IC50 (CCK-2R)
[9] = 1321-N1 cells stably expressing CCK-2R, IP1 accumulation, highest dose tested 1×10^6 pM, read-out: EC50 (CCK-2R)
[10] = displacement of [125I]-CCK-8s, plasma membranes of 1321-N1 cells expressing CCK-1R, read-out: IC50 (CCK-1R)

Row | Molecule | EC50 (CCK-1R) [1] | EC50 [3, 7] | IC50 [4, 8] | EC50 [5, 9] | CCK-1R binding selectivity (IC50 (CCK-2R)/IC50 (CCK-1R)) [6] | also measured
1 | 2-[2-[2-[[2-[2-[2-[[(4S)-4-Carboxy-4-(17-carboxyheptadecanoylamino)butanoyl]amino]ethoxy]ethoxy]acetyl]amino]ethoxy]ethoxy]acetyl-Asp-sTyr-Nle-Gly-Trp-Nle-DMeAsp-1Nal-amide (peptide) | 0.37 nM |  |  |  |  | EC50 (CCK-2R) [2]: 180 nM
2 | CC(C)C[C@H](NC(=O)[C@H](Cc1ccc(OS(=O)(=O)O)cc1)NC(=O)[C@H](CCC(=O)O)NC(=O)COCCOCCNC(=O)COCCOCCNC(=O)CC[C@H](NC(=O)CCCCCCCCCCCCCCCCC(=O)O)C(=O)O)C(=O)NCC(=O)N[C@@H](Cc1c[nH]c2ccccc12)C(=O)N[C@@H](CCC(N)=O)C(=O)N(C)[C@H](CC(=O)O)C(=O)N(C)[C@@H](Cc1ccccc1)C(N)=O [Example 42, 2-[2-[2-[[2-[2-[2-[[(4S)-4-Carboxy-4-(17-carboxyheptadecanoylamino)butanoyl]amino]ethoxy]ethoxy]acetyl]amino]ethoxy]ethoxy]acetyl-Glu-sTyr-Leu-Gly-Trp-Gln-DMeAsp-MePhe-amide] |  | 0.22 nM | > 10000 nM | > 1000 nM | very selective | CCK-1R selectivity (EC50 (CCK-2R)/EC50 (CCK-1R)) [3]: very selective
3 | CC(C)C[C@H](NC(=O)[C@H](Cc1ccc(OS(=O)(=O)O)cc1)NC(=O)[C@@H](N)CC(=O)O)C(=O)NCC(=O)N[C@@H](Cc1c[nH]c2ccccc12)C(=O)N[C@@H](C)C(=O)N(C)[C@H](CC(=O)O)C(=O)N(C)[C@@H](Cc1ccccc1)C(N)=O [Example 84, Asp-sTyr-Leu-Gly-Trp-Ala-DMeAsp-MePhe-amide] (H-D[sY]LGWA[dNMeD][NMeF]-NH2) |  |  |  |  |  | EC50 [3]: 0.22 nM; IC50 [4]: > 10000 nM; EC50 [5]: > 1000 nM; IC50 [6]: 0.53 nM
4 | D[sY]FGW[Nle][dNMeD][NMeF]-NH2 (N-terminus assumed; SMILES CCCC[C@H](NC(=O)[C@H](Cc1c[nH]c2ccccc12)NC(=O)CNC(=O)[C@H](Cc1ccccc1)NC(=O)[C@H](Cc1ccc(OS(=O)(=O)O)cc1)NC(=O)[C@@H](N)CC(=O)O)C(=O)N(C)[C@H](CC(=O)O)C(=O)N(C)[C@@H](Cc1ccccc1)C(N)=O, X = Nle or Nal) [Asp-sTyr-Phe-Gly-Trp-Nle-DMeAsp-MePhe-amide] | 0.22 nM |  |  |  |  | EC50 (CCK-2R) [2]: > 1000 nM

More lines, main results first:

Row | EC50 (CCK-1R) [1] | EC50 [3, 7] | IC50 [4, 8] | EC50 [5, 9] | CCK-1R binding selectivity (IC50 (CCK-2R)/IC50 (CCK-1R)) [6] | Molecule | also measured
5 |  | 0.14 nM | 2300 nM | 290 nM | 84000 | CCCC[C@H](NC(=O)[C@H](Cc1ccc(OS(=O)(=O)O)cc1)NC(=O)[C@@H](N)CC(=O)O)C(=O)NCC(=O)N[C@@H](Cc1c[nH]c2ccccc12)C(=O)N[C@@H](CCCC)C(=O)N(C)[C@H](CC(=O)O)C(=O)N[C@@H](Cc1cccc2ccccc12)C(N)=O [Example 54, Asp-sTyr-Nle-Gly-Trp-Nle-DMeAsp-1Nal-amide] (H-D[sY][Nle]GW[Nle][dNMeD][1Nal]-NH2) | CCK-1R selectivity (EC50 (CCK-2R)/EC50 (CCK-1R)) [3]: 2100; IC50 [6, 10]: 0.027 nM
6 |  | 0.22 nM | 920 nM | > 1000 nM | 32000 | CCCC[C@H](NC(=O)[C@H](Cc1c[nH]c2ccccc12)NC(=O)CNC(=O)[C@H](Cc1ccccc1)NC(=O)[C@H](Cc1ccc(OS(=O)(=O)O)cc1)NC(=O)[C@@H](N)CC(=O)O)C(=O)N(C)[C@H](CC(=O)O)C(=O)N(C)[C@@H](Cc1ccccc1)C(N)=O [Example 78, Asp-sTyr-Phe-Gly-Trp-Nle-DMeAsp-MePhe-amide] (H-D[sY]FGW[Nle][dNMeD][NMeF]-NH2) | IC50 [6, 10]: 0.029 nM
7 | 0.43 nM |  |  |  |  | {C18 diacid-γGlu-AEEA-AEEA}-[d(βAsp)][Phe(4-CH2SO3H)][Nle]GW[Nle][dNMeD][NMeF]-NH2 (SMILES CCCC[C@H](NC(=O)[C@H](Cc1ccc(CS(=O)(=O)O)cc1)NC(=O)C[C@@H](NC(=O)COCCOCCNC(=O)COCCOCCNC(=O)CC[C@H](NC(=O)CCCCCCCCCCCCCCCCC(=O)O)C(=O)O)C(=O)O)C(=O)NCC(=O)N[C@@H](Cc1c[nH]c2ccccc12)C(=O)N[C@@H](CCCC)C(=O)N(C)[C@H](CC(=O)O)C(=O)N(C)[C@@H](Cc1ccccc1)C(N)=O) | 
